Experimental data taken from paper PMC9402538, “Rational design of a sensitivity-enhanced tracer for discovering efficient APC–Asef inhibitors” (Nature Communications, 2022).
Read-outs that look alike come from different tables or passages of the source. Where a SMILES comes first, the peptide text is derived from it. [ ]: non-standard residue; d: D form. The star is where a group is joined. Bpa = N[C@@H](Cc1ccc(C(=O)c2ccccc2)cc1)C(=O)O; 2Furoyl = O=C(c1ccco1)*; X1 = CSc1nccc(C(=O)*)n1; Bz = O=C(c1ccccc1)*

Key:
APC = target: T1, APC (Homo sapiens, UniProt P25054); test: FP competitive assay using tracer 1; assay type: binding
T1 sequence (P25054 303-739): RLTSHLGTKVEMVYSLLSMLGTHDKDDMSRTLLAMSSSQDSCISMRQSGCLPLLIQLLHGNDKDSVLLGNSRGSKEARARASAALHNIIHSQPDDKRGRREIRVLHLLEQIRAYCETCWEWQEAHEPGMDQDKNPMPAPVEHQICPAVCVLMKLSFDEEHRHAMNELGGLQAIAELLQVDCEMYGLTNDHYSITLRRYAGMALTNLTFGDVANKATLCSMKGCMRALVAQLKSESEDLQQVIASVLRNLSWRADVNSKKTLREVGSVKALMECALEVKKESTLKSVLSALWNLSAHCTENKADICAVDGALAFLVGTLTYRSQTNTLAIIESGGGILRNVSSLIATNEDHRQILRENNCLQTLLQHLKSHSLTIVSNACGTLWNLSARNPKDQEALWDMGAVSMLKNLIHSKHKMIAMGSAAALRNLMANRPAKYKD
Procedure: In our previous study, we established an FP assay for screening APC–Asef inhibitors using FITC-labeled tracer 1 (Ac–^176[…][FITC]^195–NH2)[16]. […]. However, their Kd values measured by isothermal titration calorimetry (ITC) actually vary up to more than 20 times[16],[17]. […].
FITC-labeled tracer peptides were obtained from Changzhou Kanglong Biotech Ltd. (Changzhou, Jiangsu, China). […]. The FP signal changes upon tracer binding were measured after 1.5 h of incubation using a Synergy neo microplate reader (BioTek Instruments, Inc.) and plotted against the protein concentration. The corresponding EC50 values were generated by fitting the curves with a nonlinear regression model. […]. To make a working solution, APC (303–739) was diluted in FP buffer (50 mM HEPES, pH 7.5, 300 mM NaCl, 1 mM EDTA, 1 mM DTT). […] The FP signals were measured after 1.5 h of incubation at room temperature using a Synergy neo microplate reader. Three controls were included on each plate, i.e., blank (without protein and tracer), 100% inhibition (free tracer only), and 0% inhibition (protein/tracer complex only) controls. All experiments were performed in triplicate. The IC50 values of peptides were calculated by nonlinear regression analysis using GraphPad Prism 7.0 software.

APC (303–739) = target: T2, APC (303–739) (Homo sapiens, UniProt P25054); test: FP competitive assay using tracer 7; assay type: binding; settings: IC50, Tracer 7, Supplementary Table 4
T2 sequence (P25054 303-739): T1 sequence (P25054 303-739)
Procedure: FITC-labeled tracer peptides were obtained from Changzhou Kanglong Biotech Ltd. (Changzhou, Jiangsu, China). […]. The FP signal changes upon tracer binding were measured after 1.5 h of incubation using a Synergy neo microplate reader (BioTek Instruments, Inc.) and plotted against the protein concentration. The corresponding EC50 values were generated by fitting the curves with a nonlinear regression model. […]. To make a working solution, APC (303–739) was diluted in FP buffer (50 mM HEPES, pH 7.5, 300 mM NaCl, 1 mM EDTA, 1 mM DTT). The diluted APC protein (91 μL) was combined with a serial dilution of peptides (4 μL) and incubated at room temperature for 1 h, followed by the addition of 5 μL of 400 nM tracer 7. The FP signals were measured after 1.5 h of incubation at room temperature using a Synergy neo microplate reader. Three controls were included on each plate, i.e., blank (without protein and tracer), 100% inhibition (free tracer only), and 0% inhibition (protein/tracer complex only) controls. All experiments were performed in triplicate. The IC50 values of peptides were calculated by nonlinear regression analysis using GraphPad Prism 7.0 software.

| IC50 (APC; Supplementary Table 4, read-out: IC50, Tracer 1) [nM] | SMILES | IC50 (APC) [nM] | IC50 (APC (303–739)) [nM] |
| --- | --- | --- | --- |
|  | CC(C)C[C@H](NC(=O)[C@H](CO)NC(=O)[C@H](CCC(=O)O)NC(=O)CNC(=O)[C@H](C)NC(=O)c1ccccc1)C(=O)N[C@@H](Cc1c[nH]c2ccccc12)C(=O)N[C@@H](CCC(=O)O)C(N)=O [MAI-452] (Bz-AGESLWE-NH2) | 440 ± 150 | 170 ± 10 |
|  | CC(C)C[C@H](NC(=O)[C@H](CO)NC(=O)[C@H](CCC(=O)O)NC(=O)CNC(=O)[C@H](C)NC(=O)c1ccco1)C(=O)N[C@@H](Cc1ccc(O)cc1)C(=O)N[C@@H](Cc1ccc(C(=O)c2ccccc2)cc1)C(N)=O [MAI-454] (2Furoyl-AGESLY[Bpa]-NH2) | 480 ± 150 |  |
| 570 ± 120 | CSc1nccc(C(=O)N[C@@H](C)C(=O)NCC(=O)N[C@@H](CCC(=O)O)C(=O)N[C@@H](CO)C(=O)N[C@@H](CC(C)C)C(=O)N[C@@H](Cc2ccc(O)cc2)C(=O)N[C@@H](CCC(=O)O)C(N)=O)n1 [MAI-456] (X1-AGESLYE-NH2) |  |  |
|  | CC(C)C[C@H](NC(=O)[C@H](CO)NC(=O)[C@H](CCC(=O)O)NC(=O)CNC(=O)[C@H](C)NC(=O)c1ccccc1)C(=O)N[C@@H](Cc1ccc(O)cc1)C(=O)N[C@@H](Cc1ccc(C(=O)c2ccccc2)cc1)C(N)=O [MAI-457] (Bz-AGESLY[Bpa]-NH2) | 590 ± 200 |  |
